From patent US9695155B2, “Herbicidal substituted pyrimidinyloxy benzene compounds” (E. I. DU PONT DE NEMOURS AND COMPANY, priority 2013, dated 2017)

Assays:
Experiment in all cases: Test F preemergence
Conditions in all cases: 21 days, scale 0 to 100
[1] = tested on: dayflower; format: in vivo, Commelina virginica
Text: (§1) Seeds of plant species selected from bermudagrass (Cynodon dactylon), surinam grass (Brachiaria decumbens), large (Lg) crabgrass (Digitaria sanguinalis), crabgrass, naked (naked crabgrass, Digitaria nuda), foxtail, green (green foxtail, Setaria viridis), johnsongrass (Sorghum halepense), kochia (Kochia scoparia), morningglory (pitted morningglory, Ipomoea lacunosa), nutsedge, purple (purple nutsedge, Cyperus rotundus), ragweed (common ragweed, Ambrosia elatior), mustard, black (black mustard, Brassica nigra), guineagrass (Panicum maximum), dallisgrass (Paspalum dilatatum), barnyardgrass (Echinochloa crus-galli), sandbur (southern sandbur, Cenchrus echinatus), sowthistle (common sowthistle, Sonchus oleraceous), Italian ryegrass (Lolium multiflorum), signalgrass (broadleaf signalgrass, Brachiaria platyphylla), dayflower (Virginia (VA) dayflower, Commelina virginica), bluegrass (annual bluegrass, Poa annua), quackgrass (Elytrigia repens), mallow (common mallow, Malva sylvestris), buckwheat, wild (wild buckwheat, Polygonum convolvulus), leafy spurge (Euphorbia esula), chickweed (common chickweed, Stellaria media), wild poinsettia (Euphorbia heterophylla), and pigweed (Amaranthus retroflexus) were planted into a blend of loam soil and sand and treated preemergence with test chemicals formulated in a non-phytotoxic solvent mixture which included a surfactant.
(§2) Treated plants and controls were maintained in a greenhouse for 21 days, after which time all species were compared to controls and visually evaluated. Plant response ratings, summarized in Table F, are based on a scale of 0 to 100 where 0 is no effect and 100 is complete control. A dash (-) response means no test result.

[2] = tested on: nutsedge, purple; format: in vivo, Cyperus rotundus
Text: as §1, §2

[3] = tested on: kochia; format: in vivo, Kochia scoparia
Text: as §1, §2

[4] = tested on: sowthistle; format: in vivo, Sonchus oleraceous
Text: as §1, §2

[5] = tested on: mallow; format: in vivo, Malva sylvestris
Text: as §1, §2

N#Cc1cccc(Oc2ncc(Cl)cn2)c1-n1cc(C(F)(F)F)cn1 [Compound 58, 3-[(5-chloro-2-pyrimidinyl)oxy]-2-[4-(trifluoromethyl)-1H-pyrazol-1-yl]benzonitrile]
Plant response rating, Dayflower, VA ([1]; 16 g ai/ha): 90
Plant response rating, Dayflower, VA ([1]; 31 g ai/ha): 95
Plant response rating, Dayflower, VA ([1]; 62 g ai/ha): 100
Plant response rating, Dayflower, VA ([1]; 125 g ai/ha): 100
Plant response rating, Dayflower, VA ([1]; 250 g ai/ha): 100
Plant response rating, Nutsedge, Purple ([2]; 16 g ai/ha): 0
Plant response rating, Nutsedge, Purple ([2]; 31 g ai/ha): 60
Plant response rating, Nutsedge, Purple ([2]; 62 g ai/ha): 40
Plant response rating, Nutsedge, Purple ([2]; 125 g ai/ha): 70
Plant response rating, Nutsedge, Purple ([2]; 250 g ai/ha): 80
Plant response rating, Kochia ([3]; 16 g ai/ha): 98
Plant response rating, Kochia ([3]; 31 g ai/ha): 100
Plant response rating, Kochia ([3]; 62 g ai/ha): 100
Plant response rating, Kochia ([3]; 125 g ai/ha): 100
Plant response rating, Kochia ([3]; 250 g ai/ha): 100
Plant response rating, Sowthistle ([4]; 16 g ai/ha): 100
Plant response rating, Sowthistle ([4]; 31 g ai/ha): 100
Plant response rating, Sowthistle ([4]; 62 g ai/ha): 100
Plant response rating, Sowthistle ([4]; 125 g ai/ha): 100
Plant response rating, Sowthistle ([4]; 250 g ai/ha): 100
Plant response rating, Mallow ([5]; 16 g ai/ha): 60
Plant response rating, Mallow ([5]; 31 g ai/ha): 100
Plant response rating, Mallow ([5]; 62 g ai/ha): 98
Plant response rating, Mallow ([5]; 125 g ai/ha): 100
Plant response rating, Mallow ([5]; 250 g ai/ha): 100
